How the values were obtained:
[1] = molecular target: T1, human plasma kallikrein (Homo sapiens, UniProt P03952); experiment: Determination of the plasma kallikrein activity (fluorogenic peptide substrate, AMC cleavage); format: biochemical; conditions: plasma kallikrein from Kordia 0.6 nM; substrate H-Pro-Phe-Arg-AMC 10 μM; 30 min at 22° C.; in some cases averages from multiple determinations
T1 construct: purchased Kordia
Protocol: (§1) To determine the plasma kallikrein inhibition of the substances according to the invention, a biochemical test system is used which utilizes the reaction of a peptidic plasma kallikrein substrate to determine the enzymatic activity of human plasma kallikrein. Here, plasma kallikrein cleaves from the peptic plasma kallikrein substrate the C-terminal aminomethylcoumarin (AMC), the fluorescence of which is measured. The determinations are conducted in microtitre plates.
Test substances are dissolved in dimethyl sulfoxide and serially diluted in dimethyl sulfoxide (3000 μM to 0.0078 μM; resulting final concentrations in the test: 50 μM to 0.00013 μM). 1 μl of the diluted substance solutions is placed into each of the wells of white microtitre plates from Greiner (384 wells). 20 μl of assay buffer (50 mM Tris/HCl pH 7.4; 100 mM sodium chloride solution; 5 mM calcium chloride solution; 0.1% of bovine serum albumin) and 20 μl of plasma kallikrein from Kordia (0.6 nM in assay buffer) are then added successively. After 15 min of incubation, the enzyme reaction is started by addition of 20 μl of the substrate H-Pro-Phe-Arg-AMC dissolved in assay buffer (10 μM in assay buffer) from Bachem, the mixture is incubated at room temperature (22° C.) for 30 min and fluorescence is then measured (excitation: 360 nm, emission: 460 nm). The measured emissions of the test batches with test substance are compared to those of control batches without test substance (only dimethyl sulfoxide instead of test substance in dimethyl sulfoxide), and IC50 values are calculated from the concentration/activity relationships. Activity data from this test are given in Table B below (in some cases as averages from multiple individual determinations): […]

[2] = molecular target: T2, human factor XIa (Homo sapiens, UniProt P03951); experiment: Measurement of FXIa inhibition (fluorogenic peptide substrate, AMC cleavage); format: biochemical; conditions: factor XIa from Kordia 0.45 nM; substrate Boc-Glu(OBzl)-Ala-Arg-AMC 10 μM; 30 min at 22° C.; in some cases averages from multiple determinations
T2 construct: purchased Kordia
Protocol: as §1, with “The factor XIa” for “To determine the plasma kallikrein”, “invention is determined using” for “invention,”, “system” for “system is used”, “factor XIa” for “plasma kallikrein”, “factor XIa.” for “plasma kallikrein.”
Test substances are dissolved in dimethyl sulfoxide and serially diluted in dimethyl sulfoxide (3000 μM to 0.0078 μM; resulting final concentrations in the test: 50 μM to 0.00013 μM). 1 μl of the diluted substance solutions is placed into each of the wells of white microtitre plates from Greiner (384 wells). 20 μl of assay buffer (50 mM of Tris/HCl pH 7.4; 100 mM of sodium chloride; 5 mM of calcium chloride; 0.1% of bovine serum albumin) and 20 μl of factor XIa from Kordia (0.45 nM in assay buffer) are then added successively. After 15 min of incubation, the enzyme reaction is started by addition of 20 μl of the factor XIa substrate Boc-Glu(OBzl)-Ala-Arg-AMC dissolved in assay buffer (10 μM in assay buffer) from Bachem, the mixture is incubated at room temperature (22° C.) for 30 min and fluorescence is then measured (excitation: 360 nm, emission: 460 nm). The measured emissions of the test batches with test substance are compared to those of control batches without test substance (only dimethyl sulfoxide instead of test substance in dimethyl sulfoxide), and IC50 values are calculated from the concentration/activity relationships. Activity data from this test are given in Table A below (in some cases as averages from multiple individual determinations): […]

T2 sequence (P03951 388-625 limits assumed): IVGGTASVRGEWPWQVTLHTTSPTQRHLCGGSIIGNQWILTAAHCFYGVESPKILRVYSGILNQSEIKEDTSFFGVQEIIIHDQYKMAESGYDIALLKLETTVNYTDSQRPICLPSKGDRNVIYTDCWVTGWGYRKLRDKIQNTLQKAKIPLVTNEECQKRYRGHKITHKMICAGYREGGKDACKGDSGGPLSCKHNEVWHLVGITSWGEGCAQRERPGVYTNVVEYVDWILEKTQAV
T2 sequence (P03951 19-387 partner limits assumed): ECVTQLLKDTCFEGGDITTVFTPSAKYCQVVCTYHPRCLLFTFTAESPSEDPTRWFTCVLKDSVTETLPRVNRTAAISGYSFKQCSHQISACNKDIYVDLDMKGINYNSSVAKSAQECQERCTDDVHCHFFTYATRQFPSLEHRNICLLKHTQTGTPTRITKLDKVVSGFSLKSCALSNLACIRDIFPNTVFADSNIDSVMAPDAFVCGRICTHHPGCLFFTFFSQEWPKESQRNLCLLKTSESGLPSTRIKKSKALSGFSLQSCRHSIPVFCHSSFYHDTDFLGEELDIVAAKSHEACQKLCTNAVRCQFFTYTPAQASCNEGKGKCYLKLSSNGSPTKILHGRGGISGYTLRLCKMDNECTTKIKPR
T1 sequence (P03952 391-638 limits assumed): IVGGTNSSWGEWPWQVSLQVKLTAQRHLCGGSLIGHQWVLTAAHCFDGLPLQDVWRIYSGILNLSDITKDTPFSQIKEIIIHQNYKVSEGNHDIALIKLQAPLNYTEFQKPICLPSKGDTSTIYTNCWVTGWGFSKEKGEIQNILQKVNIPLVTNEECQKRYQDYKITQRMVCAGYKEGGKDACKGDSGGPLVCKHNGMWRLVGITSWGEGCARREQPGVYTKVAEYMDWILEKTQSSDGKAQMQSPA
T1 sequence (P03952 20-390 partner limits assumed): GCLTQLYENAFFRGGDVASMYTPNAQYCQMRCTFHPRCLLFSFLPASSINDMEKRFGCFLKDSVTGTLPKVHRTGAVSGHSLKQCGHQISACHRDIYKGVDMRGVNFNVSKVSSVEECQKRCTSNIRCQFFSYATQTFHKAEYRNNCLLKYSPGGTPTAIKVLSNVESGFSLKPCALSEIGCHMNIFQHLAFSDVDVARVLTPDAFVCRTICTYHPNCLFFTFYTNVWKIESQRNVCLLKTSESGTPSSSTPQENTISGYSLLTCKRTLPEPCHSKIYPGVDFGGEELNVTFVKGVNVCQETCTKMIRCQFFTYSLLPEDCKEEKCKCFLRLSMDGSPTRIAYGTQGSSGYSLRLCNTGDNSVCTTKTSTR

Structure (SMILES) | IC50 [1] [nM] | IC50 [2] [nM]
COc1cn(C(C[C@@H]2CCCCO2)C(=O)Nc2ccc3nn(C)cc3c2)c(=O)cc1-c1cc(Cl)ccc1OCC(F)(F)F (stereo partly drawn) [Example 51, 2-{4-[5-Chloro-2-(2,2,2-trifluoroethoxy)phenyl]-5-methoxy-2-oxopyridin-1(2H)-yl}-N-(2-methyl-2H-indazol-5-yl)-3-[(2S)-tetrahydro-2H-pyran-2-yl]propanamide] | 65 | 6
COCCC(C(=O)Nc1ccc2nn(C)cc2c1)n1cc(OC)c(-c2cc(Cl)ccc2OCC(F)(F)F)cc1=O (racemic) [Example 5, 2-{4-[5-Chloro-2-(2,2,2-trifluoroethoxy)phenyl]-5-methoxy-2-oxopyridin-1(2H)-yl}-4-methoxy-N-(2-methyl-2H-indazol-5-yl)butanamide] | 33 | 4.1
CNC(=O)c1ccc(NC(=O)C(CCOC2(C)CCC2)n2cc(OC)c(-c3cc(Cl)ccc3OCC(F)(F)F)cc2=O)cn1 (racemic) [Example 57, 5-[[2-[4-[5-Chloro-2-(2,2,2-trifluoroethoxy)phenyl]-5-methoxy-2-oxo-1-pyridyl]-4-(1-methylcyclobutoxy)butanoyl]amino]-N-methylpyridine-2-carboxamide] | 54 | 14
COc1cn(C(C[C@H]2CCCCO2)C(=O)Nc2ccc3nn(C)cc3c2)c(=O)cc1-c1cc(Cl)ccc1OCC(F)(F)F (stereo partly drawn) [Example 21, 2-{4-[5-Chloro-2-(2,2,2-trifluoroethoxy)phenyl]-5-methoxy-2-oxopyridin-1(2H)-yl}-N-(2-methyl-2H-indazol-5-yl)-3-[(2R)-tetrahydro-2H-pyran-2-yl]propanamide] | 150 | 16
COc1cn(C(CCOC(C)(C)C)C(=O)Nc2ccc(C(=O)O)s2)c(=O)cc1-c1cc(Cl)ccc1OCC(F)(F)F (racemic) [Example 75, 5-{[4-tert-Butoxy-2-{4-[5-chloro-2-(2,2,2-trifluoroethoxy)phenyl]-5-methoxy-2-oxopyridin-1(2H)-yl}butanoyl]amino}thiophene-2-carboxylic acid] | 19 | 2.5
COc1cn(C(C[C@@H]2CCCCO2)C(=O)Nc2ccc(C(N)=O)c(F)c2)c(=O)cc1-c1cc(Cl)ccc1OCC(F)(F)F (stereo partly drawn) [Example 53, 4-[(2-{4-[5-Chloro-2-(2,2,2-trifluoroethoxy)phenyl]-5-methoxy-2-oxopyridin-1(2H)-yl}-3-[(2S)-tetrahydro-2H-pyran-2-yl]propanoyl)amino]-2-fluorobenzamide] | 210 | 9.3
COc1cc(NC(=O)C(CCOC(C)(C)C)n2cc(OC)c(-c3cc(Cl)ccc3OCC(F)(F)F)cc2=O)ccc1C(=O)O (racemic) [Example 74, 4-{[4-tert-Butoxy-2-{4-[5-chloro-2-(2,2,2-trifluoroethoxy)phenyl]-5-methoxy-2-oxopyridin-1(2H)-yl}butanoyl]amino}-2-methoxybenzoic acid] | 210 | 6.9
CNC(=O)c1ccc(NC(=O)C(CCOC(C)(C)C)n2cc(OC)c(-c3cc(Cl)ccc3OCC(F)(F)F)cc2=O)cn1 (racemic) [Example 12, 5-[(4-tert-Butoxy-2-{4-[5-chloro-2-(2,2,2-trifluoroethoxy)phenyl]-5-methoxy-2-oxopyridin-1(2H)-yl}butanoyl)amino]-N-methylpyridine-2-carboxamide] | 60 | 12
COc1cn(C(C[C@@H]2CCCCO2)C(=O)Nc2ccc(C(N)=O)nc2)c(=O)cc1-c1cc(Cl)ccc1OCC(F)(F)F (some centres unmarked) [Example 54] | 90 | 3
COc1cn(C(CCOC(C)(C)C)C(=O)Nc2ccc(C(=O)O)cc2)c(=O)cc1-c1cc(Cl)ccc1OCC(F)F (racemic) [Example 25, 4-[(4-tert-Butoxy-2-{4-[5-chloro-2-(2,2-difluoroethoxy)phenyl]-5-methoxy-2-oxopyridin-1(2H)-yl}butanoyl)amino]benzoic acid] | 120 | 2.4
COc1cn(C(CC2COCCO2)C(=O)Nc2ccc(C(=O)O)cc2)c(=O)cc1-c1cc(Cl)ccc1OCC(F)(F)F (centres unmarked) [Example 17, 4-{[2-{4-[5-Chloro-2-(2,2,2-trifluoroethoxy)phenyl]-5-methoxy-2-oxopyridin-1(2H)-yl}-3-(1,4-dioxan-2-yl)propanoyl]amino}benzoic acid] | 47 | 0.82
COc1cn([C@@H](CCOC(C)(C)C)C(=O)Nc2ccc(C(=O)O)s2)c(=O)cc1-c1cc(Cl)ccc1OCC(F)(F)F (single isomer, unassigned) [Example 69, 5-{[4-tert-Butoxy-2-{4-[5-chloro-2-(2,2,2-trifluoroethoxy)phenyl]-5-methoxy-2-oxopyridin-1(2H)-yl}butanoyl]amino}thiophene-2-carboxylic acid] | 8.9 | 0.88
COc1cn([C@@H](CCOC(C)(C)C)C(=O)Nc2ccc3nc(C(=O)O)cn3c2)c(=O)cc1-c1cc(Cl)ccc1OCC(F)(F)F (single isomer, unassigned) [Example 71, 6-{[4-tert-Butoxy-2-{4-[5-chloro-2-(2,2,2-trifluoroethoxy)phenyl]-5-methoxy-2-oxopyridin-1(2H)-yl}butanoyl]amino}imidazo[1,2-a]pyridine-2-carboxylic acid] | 10 | 0.93
COc1cn(C(Cc2ccn(C)n2)C(=O)Nc2ccc(C(=O)O)cc2)c(=O)cc1-c1cc(Cl)ccc1OCC(F)(F)F (racemic) [Example 13, 4-{[2-{4-[5-Chloro-2-(2,2,2-trifluoroethoxy)phenyl]-5-methoxy-2-oxopyridin-1(2H)-yl}-3-(1-methyl-1H-pyrazol-3-yl)propanoyl]amino}benzoic acid] | 14 | 1.3
COc1cn(C(C[C@H]2CCCCO2)C(=O)Nc2ccc(C(=O)O)cc2)c(=O)cc1-c1cc(Cl)ccc1OCC(F)(F)F (stereo partly drawn) [Example 20, 4-[(2-{4-[5-Chloro-2-(2,2,2-trifluoroethoxy)phenyl]-5-methoxy-2-oxopyridin-1(2H)-yl}-3-[(2R)-tetrahydro-2H-pyran-2-yl]propanoyl)amino]benzoic acid] | 120 | 2.5
COc1cn(C(Cc2ccn(C)n2)C(=O)Nc2ccc3nn(C)cc3c2)c(=O)cc1-c1cc(Cl)ccc1OCC(F)(F)F (racemic) [Example 14, 2-{4-[5-Chloro-2-(2,2,2-trifluoroethoxy)phenyl]-5-methoxy-2-oxopyridin-1(2H)-yl}-N-(2-methyl-2H-indazol-5-yl)-3-(1-methyl-1H-pyrazol-3-yl)propanamide] | 45 | 9.3
COc1cn(C(C[C@H](C)OC)C(=O)Nc2ccc(C(=O)O)cc2)c(=O)cc1-c1cc(Cl)ccc1OCC(F)(F)F (mixture of isomers) [Example 35, 4-{[(4S)-2-{4-[5-Chloro-2-(2,2,2-trifluoroethoxy)phenyl]-5-methoxy-2-oxopyridin-1(2H)-yl}-4-methoxypentanoyl]amino}benzoic acid] | 130 | 2.4
COc1cn(C(CCOC2(C)CCC2)C(=O)Nc2ccc(C(N)=O)nc2)c(=O)cc1-c1cc(Cl)ccc1OCC(F)(F)F (racemic) [Example 60, 5-[[2-[4-[5-Chloro-2-(2,2,2-trifluoroethoxy)phenyl]-5-methoxy-2-oxo-1-pyridyl]-4-(1-methylcyclobutoxy)butanoyl]amino]pyridine-2-carboxamide] | 84 | 17
COc1cn(C(C[C@H](C)OC)C(=O)Nc2ccc(C(N)=O)nc2)c(=O)cc1-c1cc(Cl)ccc1OCC(F)(F)F (stereo partly drawn) [Example 56, 5-[[(4S)-2-[4-[5-Chloro-2-(2,2,2-trifluoroethoxy)phenyl]-5-methoxy-2-oxo-1-pyridyl]-4-methoxypentanoyl]amino]pyridine-2-carboxamide] | 120 | 7.1

Source: patent publication US20180250280A1 (BAYER PHARMA AKTIENGESELLSCHAFT, priority 2015, published 2018)
